We go through 14 compounds from ChEMBL document CHEMBL3352064, “Synthesis and bioactive evaluation of a novel series of coumarinazoles” (Bioorg Med Chem Lett, 2014).

Values after ≈ are worked out from the molar mass of the structure shown.

For one series, the system named is Candida albicans. In words: Antimicrobial activity against Candida albicans by two-fold serial dilution technique. The class given is functional.
In another series the test system is Shigella dysenteriae. In words: Antimicrobial activity against Shigella dysenteriae by two-fold serial dilution technique. The class given is functional.
In another series the test system is Saccharomyces cerevisiae. Nature of the series: Antimicrobial activity against Saccharomyces cerevisiae by two-fold serial dilution technique. The class given is functional.
Another series deals with Bacillus subtilis. In words: Antimicrobial activity against Bacillus subtilis by two-fold serial dilution technique. Format: functional.
In another series the test system is Escherichia coli. Nature of the series: Antimicrobial activity against Escherichia coli JM109 by two-fold serial dilution technique. Format: functional.
The subject of another series is Micrococcus luteus. In words: Antimicrobial activity against Micrococcus luteus ATCC 4698 by two-fold serial dilution technique. Format: functional.
The next series deals with Cyberlindnera jadinii. Nature of the series: Antimicrobial activity against Candida utilis by two-fold serial dilution technique. The class given is functional. The note with it: Williopsis jadinii.
The next series relates to Pseudomonas aeruginosa. Nature of the series: Antimicrobial activity against Pseudomonas aeruginosa by two-fold serial dilution technique. Format: functional.
The next series has as its system Aspergillus flavus. In words: Antimicrobial activity against Aspergillus flavus by two-fold serial dilution technique. The class given is functional.
The test system of a further series is Candida. In words: Antimicrobial activity against Candida mycoderma by two-fold serial dilution technique. Format: functional.
A further series has as its system Staphylococcus aureus. In words: Antimicrobial activity against methicillin-resistant Staphylococcus aureus N315 by two-fold serial dilution technique. Format: functional.
Series [1] is described as follows: n-Octanol-water partition coefficient, log P of the compound after 24 hrs by shake flask method. Format: physicochemical.

What is called MIC is the smallest concentration in the dilution series that meets the test's criterion for growth inhibition. Take `Cc1cc(=O)oc2cc(OCC3CO3)ccc12` (stereo not drawn): the MIC was found to be 16 µg/mL (≈ 68.9 µM) in the series with Candida albicans; 4 µg/mL (≈ 17.2 µM) with Shigella dysenteriae; 1 µg/mL (≈ 4.31 µM) against Saccharomyces cerevisiae; 2 µg/mL (≈ 8.61 µM) in the series on Bacillus subtilis; 0.5 µg/mL (≈ 2.15 µM) with Escherichia coli; 4 µg/mL (≈ 17.2 µM) against Micrococcus luteus. The minimal inhibitory concentration (MIC) is 32 µg/mL (≈ 138 µM) against Cyberlindnera jadinii; 8 µg/mL (≈ 34.4 µM) against Pseudomonas aeruginosa; 1 µg/mL (≈ 4.31 µM) with Aspergillus flavus; 8 µg/mL (≈ 34.4 µM) against Candida; 128 µg/mL (≈ 551 µM) against Staphylococcus aureus.
The term logP denotes a log measure of how a compound divides between an organic and an aqueous phase. Low values mean a more hydrophilic compound, high ones a more lipophilic compound. Consider `Cc1cc(=O)oc2cc(OCC(O)Cn3cncn3)ccc12` (stereo not drawn), for which the MIC turned out to be 4 µg/mL (≈ 13.3 µM) against Candida albicans; 32 µg/mL (≈ 106 µM) in the series with Shigella dysenteriae; 32 µg/mL (≈ 106 µM) against Saccharomyces cerevisiae; 32 µg/mL (≈ 106 µM) with Bacillus subtilis; 64 µg/mL (≈ 212 µM) in the series on Escherichia coli; 16 µg/mL (≈ 53.1 µM) in the series with Micrococcus luteus. For the same compound, the MIC in the series on Cyberlindnera jadinii worked out at 4 µg/mL (≈ 13.3 µM); against Pseudomonas aeruginosa it was 4 µg/mL (≈ 13.3 µM); against Aspergillus flavus it was 6 µg/mL (≈ 19.9 µM); in the series on Candida it was 16 µg/mL (≈ 53.1 µM); in the series with Staphylococcus aureus it was 32 µg/mL (≈ 106 µM). In series [1], this compound gave a logP at 24 h of 0.45.
On to `Cc1cc(=O)oc2cc(OCC(O)Cn3nnc4ccccc43)ccc12` (stereo not drawn), for which the MIC with Candida albicans is 4 µg/mL (≈ 11.4 µM); against Shigella dysenteriae it was 64 µg/mL (≈ 182 µM); against Saccharomyces cerevisiae it was 8 µg/mL (≈ 22.8 µM); against Bacillus subtilis, 16 µg/mL (≈ 45.5 µM); against Escherichia coli, 16 µg/mL (≈ 45.5 µM); against Micrococcus luteus, 32 µg/mL (≈ 91.1 µM). In addition, the minimum inhibitory concentration (MIC) with Cyberlindnera jadinii turned out to be 16 µg/mL (≈ 45.5 µM); with Pseudomonas aeruginosa it was 32 µg/mL (≈ 91.1 µM); with Aspergillus flavus, 256 µg/mL (≈ 729 µM); against Candida it was 16 µg/mL (≈ 45.5 µM); in the series with Staphylococcus aureus, 16 µg/mL (≈ 45.5 µM). The compound also came in with a logP at 24 h in series [1] of 0.6.
`Cc1cc(=O)oc2cc(OCC(O)Cn3cnc4ccccc43)ccc12` (stereo not drawn): the MIC amounted to 128 µg/mL (≈ 365 µM) with Candida albicans; 512 µg/mL (≈ 1460 µM) in the series with Shigella dysenteriae; 512 µg/mL (≈ 1460 µM) against Saccharomyces cerevisiae; 128 µg/mL (≈ 365 µM) against Bacillus subtilis; 128 µg/mL (≈ 365 µM) against Escherichia coli; 512 µg/mL (≈ 1460 µM) against Micrococcus luteus. For the same compound, the MIC against Cyberlindnera jadinii was 512 µg/mL (≈ 1460 µM); with Pseudomonas aeruginosa it was greater than 512 µg/mL; in the series on Aspergillus flavus it was greater than 512 µg/mL; against Candida it was 128 µg/mL (≈ 365 µM); in the series on Staphylococcus aureus, 512 µg/mL (≈ 1460 µM). The compound also yielded a log partition coefficient (logP) at 24 h in series [1] of 0.55.
For the compound `Cc1cc2ncn(CC(O)COc3ccc4c(C)cc(=O)oc4c3)c2cc1C` (stereo not drawn), the MIC with Candida albicans came out at 16 µg/mL (≈ 42.3 µM); against Shigella dysenteriae, 64 µg/mL (≈ 169 µM); against Saccharomyces cerevisiae it was 32 µg/mL (≈ 84.6 µM); against Bacillus subtilis, 128 µg/mL (≈ 338 µM); with Escherichia coli it was 128 µg/mL (≈ 338 µM); against Micrococcus luteus, 128 µg/mL (≈ 338 µM). Also, the MIC in the series with Cyberlindnera jadinii was 4 µg/mL (≈ 10.6 µM); with Pseudomonas aeruginosa, 64 µg/mL (≈ 169 µM); in the series on Aspergillus flavus, 128 µg/mL (≈ 338 µM); in the series with Candida, 16 µg/mL (≈ 42.3 µM); with Staphylococcus aureus, 64 µg/mL (≈ 169 µM). Moreover, in [1], the logP at 24 h came out at 0.61.
With `Cc1cc(=O)oc2cc(OCC(O)CSc3nc4ccccc4[nH]3)ccc12` (stereo not drawn), the MIC against Candida albicans worked out at 32 µg/mL (≈ 83.7 µM); in the series on Shigella dysenteriae it was 64 µg/mL (≈ 167 µM); against Saccharomyces cerevisiae, 64 µg/mL (≈ 167 µM); in the series with Bacillus subtilis, 32 µg/mL (≈ 83.7 µM); with Escherichia coli, 0.5 µg/mL (≈ 1.31 µM); in the series on Micrococcus luteus it was 16 µg/mL (≈ 41.8 µM). Besides, the MIC was 0.5 µg/mL (≈ 1.31 µM) in the series on Cyberlindnera jadinii; 64 µg/mL (≈ 167 µM) against Pseudomonas aeruginosa; 16 µg/mL (≈ 41.8 µM) against Aspergillus flavus; 16 µg/mL (≈ 41.8 µM) with Candida; 32 µg/mL (≈ 83.7 µM) in the series with Staphylococcus aureus. Besides, the logP at 24 h in series [1] came to 0.49.
Consider `Cc1cc(=O)oc2cc(OCC3CO3)cc(OCC3CO3)c12` (stereo not drawn), for which the MIC against Candida albicans came out at 8 µg/mL (≈ 26.3 µM); against Shigella dysenteriae, 4 µg/mL (≈ 13.1 µM); against Saccharomyces cerevisiae, 8 µg/mL (≈ 26.3 µM); with Bacillus subtilis, 4 µg/mL (≈ 13.1 µM); against Escherichia coli, 0.5 µg/mL (≈ 1.64 µM); against Micrococcus luteus it was 8 µg/mL (≈ 26.3 µM). The MIC with Cyberlindnera jadinii was 16 µg/mL (≈ 52.6 µM); with Pseudomonas aeruginosa, 8 µg/mL (≈ 26.3 µM); against Aspergillus flavus it was 16 µg/mL (≈ 52.6 µM); with Candida it was 8 µg/mL (≈ 26.3 µM); in the series on Staphylococcus aureus it was 64 µg/mL (≈ 210 µM).
For `Cc1cc(=O)oc2cc(OCC(O)Cn3cncn3)c(OCC(O)Cn3cncn3)cc12` (stereo not drawn), the MIC in the series with Candida albicans was 1 µg/mL (≈ 2.26 µM); in the series on Shigella dysenteriae, 16 µg/mL (≈ 36.2 µM); against Saccharomyces cerevisiae it was 32 µg/mL (≈ 72.3 µM); against Bacillus subtilis it was 16 µg/mL (≈ 36.2 µM); in the series with Escherichia coli it was 1 µg/mL (≈ 2.26 µM); in the series with Micrococcus luteus, 32 µg/mL (≈ 72.3 µM). The MIC against Cyberlindnera jadinii was found to be 4 µg/mL (≈ 9.04 µM); with Pseudomonas aeruginosa it was 32 µg/mL (≈ 72.3 µM); against Aspergillus flavus, 32 µg/mL (≈ 72.3 µM); in the series with Candida, 4 µg/mL (≈ 9.04 µM); with Staphylococcus aureus, 8 µg/mL (≈ 18.1 µM). Also, the logP at 24 h in series [1] stood at 0.65.
Turning to `Cc1cc(=O)oc2cc(OCC(O)Cn3nnc4ccccc43)c(OCC(O)Cn3nnc4ccccc43)cc12` (stereo not drawn), the MIC against Candida albicans was determined as 8 µg/mL (≈ 14.7 µM); with Shigella dysenteriae, 64 µg/mL (≈ 118 µM); with Saccharomyces cerevisiae, 32 µg/mL (≈ 59 µM); against Bacillus subtilis, 64 µg/mL (≈ 118 µM); against Escherichia coli, 32 µg/mL (≈ 59 µM); against Micrococcus luteus, 16 µg/mL (≈ 29.5 µM). Moreover, the MIC in the series with Cyberlindnera jadinii came to 16 µg/mL (≈ 29.5 µM); in the series on Pseudomonas aeruginosa, 32 µg/mL (≈ 59 µM); in the series on Aspergillus flavus, 256 µg/mL (≈ 472 µM); in the series on Candida, 16 µg/mL (≈ 29.5 µM); in the series on Staphylococcus aureus it was 32 µg/mL (≈ 59 µM). The same compound yielded a lipophilicity (logP) at 24 h in series [1] of 0.48.
In the case of `Cc1cc(=O)oc2cc(OCC(O)Cn3cnc4ccccc43)c(OCC(O)Cn3cnc4ccccc43)cc12` (stereo not drawn), the MIC with Candida albicans is greater than 512 µg/mL; against Shigella dysenteriae, greater than 512 µg/mL; against Saccharomyces cerevisiae, greater than 512 µg/mL; against Bacillus subtilis, greater than 512 µg/mL; in the series on Escherichia coli, greater than 512 µg/mL; with Micrococcus luteus, 128 µg/mL (≈ 237 µM). In addition, the minimum inhibitory concentration (MIC) against Cyberlindnera jadinii stood at 512 µg/mL (≈ 947 µM); against Pseudomonas aeruginosa, 128 µg/mL (≈ 237 µM); against Aspergillus flavus it was 512 µg/mL (≈ 947 µM); against Candida, 64 µg/mL (≈ 118 µM); in the series with Staphylococcus aureus it was 512 µg/mL (≈ 947 µM). In [1], the logP at 24 h stood at 0.49.
On to `Cc1cc2ncn(CC(O)COc3cc4oc(=O)cc(C)c4cc3OCC(O)Cn3cnc4cc(C)c(C)cc43)c2cc1C` (stereo not drawn), for which the MIC against Candida albicans came out at 16 µg/mL (≈ 26.8 µM); in the series with Shigella dysenteriae, 16 µg/mL (≈ 26.8 µM); against Saccharomyces cerevisiae it was 16 µg/mL (≈ 26.8 µM); in the series with Bacillus subtilis it was 128 µg/mL (≈ 215 µM); with Escherichia coli it was 32 µg/mL (≈ 53.6 µM); in the series with Micrococcus luteus, 64 µg/mL (≈ 107 µM). Further, the MIC with Cyberlindnera jadinii came out at 4 µg/mL (≈ 6.7 µM); against Pseudomonas aeruginosa it was 16 µg/mL (≈ 26.8 µM); against Aspergillus flavus, 64 µg/mL (≈ 107 µM); against Candida, 32 µg/mL (≈ 53.6 µM); against Staphylococcus aureus it was 32 µg/mL (≈ 53.6 µM). The compound further gave a logP at 24 h in series [1] of 0.61.
On to `Cc1cc(=O)oc2cc(OCC(O)CSc3nc4ccccc4[nH]3)c(OCC(O)CSc3nc4ccccc4[nH]3)cc12` (stereo not drawn), for which the MIC in the series with Candida albicans was 8 µg/mL (≈ 13.2 µM); in the series with Shigella dysenteriae, 32 µg/mL (≈ 52.9 µM); in the series on Saccharomyces cerevisiae, 16 µg/mL (≈ 26.5 µM); against Bacillus subtilis, 64 µg/mL (≈ 106 µM); with Escherichia coli, 0.5 µg/mL (≈ 0.827 µM); against Micrococcus luteus, 32 µg/mL (≈ 52.9 µM). Further, the MIC is 2 µg/mL (≈ 3.31 µM) in the series on Cyberlindnera jadinii; 16 µg/mL (≈ 26.5 µM) against Pseudomonas aeruginosa; 64 µg/mL (≈ 106 µM) with Aspergillus flavus; 16 µg/mL (≈ 26.5 µM) in the series with Candida; 64 µg/mL (≈ 106 µM) against Staphylococcus aureus. In addition, in series [1], the logP at 24 h was found to be 0.58.
Consider `OC(Cn1cncn1)(Cn1cncn1)c1ccc(F)cc1F` [FLUCONAZOLE], for which the minimal inhibitory concentration (MIC) in the series with Candida albicans worked out at 1 µg/mL (≈ 3.27 µM); against Saccharomyces cerevisiae it was 16 µg/mL (≈ 52.2 µM); against Cyberlindnera jadinii, 8 µg/mL (≈ 26.1 µM); against Aspergillus flavus, 256 µg/mL (≈ 836 µM); against Candida, 4 µg/mL (≈ 13.1 µM).
For the compound `CCn1cc(C(=O)O)c(=O)c2cc(F)c(N3CCNCC3)cc21` [NORFLOXACIN], the MIC in the series with Shigella dysenteriae came to 4 µg/mL (≈ 12.5 µM); with Bacillus subtilis, 16 µg/mL (≈ 50.1 µM); in the series on Escherichia coli, 16 µg/mL (≈ 50.1 µM); against Micrococcus luteus it was 2 µg/mL (≈ 6.26 µM); in the series on Pseudomonas aeruginosa it was 1 µg/mL (≈ 3.13 µM); in the series with Staphylococcus aureus, 8 µg/mL (≈ 25.1 µM).
